# Experimental data taken from patent US8765730B2 (Hoffmann-La Roche Inc, priority 2010, dated 2014).
# Like-named read-outs stand apart in the source and are kept apart here.
# Target: T1, human GPBAR1 receptor (Homo sapiens, UniProt Q8TDU6)
# T1 construct: expressed in transfected cells
# T1 sequence (Q8TDU6 1-330): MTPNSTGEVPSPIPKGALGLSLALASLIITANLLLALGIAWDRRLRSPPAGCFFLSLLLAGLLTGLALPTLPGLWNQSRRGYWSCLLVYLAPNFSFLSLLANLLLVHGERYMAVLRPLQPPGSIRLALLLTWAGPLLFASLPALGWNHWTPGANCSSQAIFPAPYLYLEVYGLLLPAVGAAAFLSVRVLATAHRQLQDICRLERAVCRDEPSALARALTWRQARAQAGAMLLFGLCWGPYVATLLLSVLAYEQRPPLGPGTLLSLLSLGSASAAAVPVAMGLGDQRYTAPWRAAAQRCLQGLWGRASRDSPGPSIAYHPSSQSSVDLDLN
# Assay: functional cAMP assay in CHO-dhfr(minus) cells expressing human GPBAR1 receptors
# Type: cell-based
# Conditions: 30 min at 30° C.
# How it was run: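 Agonist cAMP read-out: stable GPBAR1 CHO-dhfr− clone, 30 min compound exposure at 30° C following 30 min IBMX (1 mM) preincubation in Krebs Ringer bicarbonate. Time-resolved energy-transfer detection gives EC50; parental CHO cells serve as counter-screen.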
# [1] = human EC50, functional cAMP assay
Structure (SMILES),EC50 [1] [nM],"EC50 (functional cAMP assay, read-out: human EC50) [nM]"
"COC(=O)c1ccc(-c2ccc(C(C/C(=N\O)c3ccnc(C)c3)c3ccc(Cl)cc3F)cc2)cc1F (centres unmarked) [Example 446, 4′-[1-(4-Chloro-2-fluoro-phenyl)-3-[(E)-hydroxyimino]-3-(2-methyl-pyridin-4-yl)-propyl]-3-fluoro-biphenyl-4-carboxylic acid methyl ester]",59,–
"Cn1cc(/C(CC(c2ccc(C(=O)NC[C@@H](O)CO)cc2)c2ccc(Cl)cc2F)=N/O)ccc1=O (stereo partly drawn) [Example 312, 4-((E)-1-(4-Chloro-2-fluorophenyl)-3-(hydroxyimino)-3-(1-methyl-6-oxo-1,6-dihydropyridin-3-yl)propyl)-N—((R)-2,3-dihydroxypropyl)benzamide]",326,–
"CCn1cc(/C(CC(c2ccc(Br)cc2)c2ccccc2C)=N/O)ccc1=O (centres unmarked) [Example 164, 5-{3-(4-Bromo-phenyl)-1-[(E)-hydroxyimino]-3-o-tolyl-propyl}-1-ethyl-1H-pyridin-2-one]",4,–
"Cc1cc(C(CC(c2ccc(-c3ccc(C(=O)O)cc3F)cc2)c2ccccc2C)=NO)ccn1 (racemic) [Example 82, 2-Fluoro-4′-[3-[hydroxyimino]-3-(2-methyl-pyridin-4-yl)-1-o-tolyl-propyl]-biphenyl-4-carboxylic acid]",43,–
"Cc1ccccc1C(Cc1ccc(Br)cc1)/C(=N/O)c1ccncc1 (centres unmarked) [Example 43, (Z)-3-(4-Bromo-phenyl)-1-pyridin-4-yl-2-o-tolyl-propan-1-one oxime]",847,–
"Cc1ccccc1[C@H](C/C(=N\O)c1cc(Br)c(=O)n(C)c1)c1ccc(Br)cc1 [Example 252, 3-Bromo-5-{(R)-3-(4-bromo-phenyl)-1-[(E)-hydroxyimino]-3-o-tolyl-propyl}-1-methyl-1H-pyridin-2-one]",–,10
"COC(=O)c1ccc(-c2ccc(C(C/C(=N\O)c3ccnc(C)c3)c3ccc(Cl)cc3F)cc2)cc1Cl (centres unmarked) [Example 450, 3-Chloro-4′-[1-(4-chloro-2-fluoro-phenyl)-3-[(E)-hydroxyimino]-3-(2-methyl-pyridin-4-yl)-propyl]-biphenyl-4-carboxylic acid methyl ester]",416,–
"Cc1cc(Cl)ccc1C(C/C(=N\O)c1ccc(=O)n(C)c1)c1ccc(-c2ccc(C(=O)NCc3nnn[nH]3)cc2)cc1 (centres unmarked) [Example 230, (E)-N-((1H-tetrazol-5-yl)methyl)-4′-(1-(4-chloro-2-methylphenyl)-3-(hydroxyimino)-3-(1-methyl-6-oxo-1,6-dihydropyridin-3-yl)propyl)biphenyl-4-carboxamide]",18,–
"Cc1cc(Cl)ccc1C(C/C(=N\O)c1ccc(=O)n(C)c1)c1ccc(OS(C)(=O)=O)c(F)c1 (centres unmarked) [Example 329, Methanesulfonic acid 4-[1-(4-chloro-2-methyl-phenyl)-3-[(E)-hydroxyimino]-3-(1-methyl-6-oxo-1,6-dihydro-pyridin-3-yl)-propyl]-2-fluoro-phenyl ester]",62,–
"CCNC(=O)c1ccc(C(C/C(=N\O)c2ccc(=O)n(C)c2)c2ccccc2Cl)cc1F (centres unmarked) [Example 245, (E)-4-(1-(2-Chlorophenyl)-3-(hydroxyimino)-3-(1-methyl-6-oxo-1,6-dihydropyridin-3-yl)propyl)-N-ethyl-2-fluorobenzamide]",250,–
"Cc1ccccc1C(C/C(=N\O)c1ccc(=O)n(C)c1)c1ccc(C(=O)N2CCC(CC(=O)O)CC2)cc1 (centres unmarked) [Example 210, (1-{4-[3-[(E)-Hydroxyimino]-3-(1-methyl-6-oxo-1,6-dihydro-pyridin-3-yl)-1-o-tolyl-propyl]-benzoyl}-piperidin-4-yl)-acetic acid]",6890,–
"Cn1cc(/C(CC(c2ccc(Br)cc2)C2CCCCC2)=N/O)ccc1=O (centres unmarked) [Example 178, 5-{3-(4-Bromo-phenyl)-3-cyclohexyl-1-[(E)-hydroxyimino]-propyl}-1-methyl-1H-pyridin-2-one]",42,–
"Cc1cc(F)ccc1[C@@H](C/C(=N\O)c1ccc(=O)n(C)c1)c1ccc(Br)cc1 (single isomer, unassigned) [Example 405, (+)-5-{3-(4-Bromo-phenyl)-3-(4-fluoro-2-methyl-phenyl)-1-[(E)-hydroxyimino]-propyl}-1-methyl-1H-pyridin-2-one]",8,–
"Cc1cc(/C(C[C@H](c2ccc([C@H]3CC[C@@H](C(=O)O)CC3)cc2)c2ccccc2C)=N/O)ccn1 [Example 492, cis-4-{4-[(R)-3-[(E)-hydroxyimino]-3-(2-methyl-pyridin-4-yl)-1-o-tolyl-propyl]-phenyl}-cyclohexanecarboxylic acid]",18,–
"CC(=O)N1CCC(c2ccc([C@@H](C/C(=N\O)c3ccnc(C)c3)c3ccc(Cl)cc3C)cc2)CC1 [Example 511, (R,E)-1-(4-(4-(1-(4-Chloro-2-methylphenyl)-3-(hydroxyimino)-3-(2-methylpyridin-4-yl)propyl)phenyl)piperidin-1-yl)ethanone]",36,–
"Cc1cc(C(CC(c2ccc(CCCCC(=O)O)cc2)c2ccccc2C)=NO)ccn1 (racemic) [Example 115, 5-{4-[3-[Hydroxyimino]-3-(2-methyl-pyridin-4-yl)-1-o-tolyl-propyl]-phenyl}-pentanoic acid]",41,–
"COC(=O)CNC(=O)c1ccc(-c2ccc(C(C/C(=N\O)c3ccc(=O)n(C)c3)c3ccc(Cl)cc3C)cc2)cc1 (centres unmarked) [Example 228, (E)-methyl 2-(4′-(1-(4-chloro-2-methylphenyl)-3-(hydroxyimino)-3-(1-methyl-6-oxo-1,6-dihydropyridin-3-yl)propyl)biphenyl-4-ylcarboxamido)acetate]",18,–
"Cn1cc(/C(CC(c2ccc(O)cc2)c2ccc(Cl)cc2F)=N/O)ccc1=O (centres unmarked) [Example 318, (E)-5-(3-(4-Chloro-2-fluorophenyl)-1-(hydroxyimino)-3-(4-hydroxyphenyl)propyl)-1-methylpyridin-2(1H)-one]",193,–
"Cc1cc(C(=O)O)ccc1-c1ccc(C(C/C(=N\O)c2ccc(=O)n(C)c2)c2ccc(Cl)cc2F)cc1 (single isomer, unassigned) [Example 466, 4′-[(+)-1-(4-Chloro-2-fluoro-phenyl)-3-[(E)-hydroxyimino]-3-(1-methyl-6-oxo-1,6-dihydro-pyridin-3-yl)-propyl]-2-methyl-biphenyl-4-carboxylic acid]",347,–
"Cc1ccccc1C(C/C(=N\O)c1cc(F)ccc1F)c1ccc(Br)cc1 (centres unmarked) [Example 52, (E)-3-(4-Bromo-phenyl)-1-(2,5-difluoro-phenyl)-3-o-tolyl-propan-1-one oxime]",763,–
"Cc1cc(C(CC(c2ccc(-c3ccc(C(=O)NCC(=O)O)cc3)cc2)c2ccccc2C)=NO)ccn1 (racemic) [Example 90, ({4′-[3-[Hydroxyimino]-3-(2-methyl-pyridin-4-yl)-1-o-tolyl-propyl]-biphenyl-4-carbonyl}-amino)-acetic acid]",10,–
"Cc1cc(/C(C[C@H](c2ccc(N3CCC(O)CC3)cc2)c2ccccc2C)=N/O)ccn1 [Example 145, (E,R)-3-(4-(4-Hydroxypiperidin-1-yl)phenyl)-1-(2-methylpyridin-4-yl)-3-o-tolylpropan-1-one oxime]",1,–
"COC(=O)c1ccc(-c2ccc(C(CC(=NO)c3ccnc(C)c3)c3ccccc3C)cc2)cc1Cl (racemic) [Example 83, 3-Chloro-4′-[3-[hydroxyimino]-3-(2-methyl-pyridin-4-yl)-1-o-tolyl-propyl]-biphenyl-4-carboxylic acid methyl ester]",455,–
